Usually IC50 stands for the concentration at which inhibition is half-maximal. A low value points to higher potency. One may read the half-life as the time needed for the level to fall by half in the phase considered. For orientation: CL/F means the apparent clearance, not corrected for the fraction that reaches the circulation. As a reminder, the bioavailability is the share of a dose that reaches the circulation, judged against a reference dose that is usually intravenous. A low value points to little systemic uptake. As usually defined, the clearance is the volume of plasma or blood freed of the substance per unit of time. A lower clearance goes with a low capacity for elimination. By Ki is commonly meant the dissociation constant of the complex between target and ligand, obtained from inhibition or displacement. Low readings indicate higher affinity, high ones lower affinity.

In data set [1] the target is T1, Coagulation factor XI (Homo sapiens, UniProt P03951). Description: Inhibition of FXIa (unknown origin).
T1 sequence (P03951 19-387 limits assumed): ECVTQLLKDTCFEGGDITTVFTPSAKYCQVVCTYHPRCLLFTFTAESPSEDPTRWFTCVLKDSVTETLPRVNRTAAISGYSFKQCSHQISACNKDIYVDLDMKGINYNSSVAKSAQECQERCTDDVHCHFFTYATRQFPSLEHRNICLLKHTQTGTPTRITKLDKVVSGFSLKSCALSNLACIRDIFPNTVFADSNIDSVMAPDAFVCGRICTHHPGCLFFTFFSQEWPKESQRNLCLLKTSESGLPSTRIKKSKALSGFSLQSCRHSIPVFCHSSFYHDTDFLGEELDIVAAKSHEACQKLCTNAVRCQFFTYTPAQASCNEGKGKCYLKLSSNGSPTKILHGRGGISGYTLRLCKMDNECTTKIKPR
T1 sequence (P03951 388-625 limits assumed): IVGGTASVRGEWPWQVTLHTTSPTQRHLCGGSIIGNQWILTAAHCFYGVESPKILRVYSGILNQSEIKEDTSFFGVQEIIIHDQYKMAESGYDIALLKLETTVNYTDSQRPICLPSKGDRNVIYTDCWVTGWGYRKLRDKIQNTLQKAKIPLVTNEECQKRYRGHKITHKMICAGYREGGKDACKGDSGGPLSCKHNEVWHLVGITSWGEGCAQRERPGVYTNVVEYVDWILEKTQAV
The next data set has as its target Plasma kallikrein (Homo sapiens, UniProt P03952).
A short description of data set [2]: Half life in Sprague-Dawley rat at 5 to 10 mg/kg, po by LC-MS/MS analysis. Particulars: in vivo, dose 5-10 mg/kg. Type of data set: ADME, organism-based.
Data set [3] in a line: Clearance in Sprague-Dawley rat at 5 to 10 mg/kg, po by LC-MS/MS analysis. It counts as ADME, organism-based. The following applies: in vivo, dose 5-10 mg/kg.
Data set [4] can be described thus: Oral bioavailability in Sprague-Dawley rat at 5 to 10 mg/kg by LC-MS/MS analysis. Type of data set: ADME, organism-based. The following applies: in vivo, dose 5-10 mg/kg.
Data set [5] can be described thus: Oral bioavailability in rat at 1.5 mg/kg. It counts as ADME, organism-based. The following applies: in vivo.
Data set [6] can be described thus: Clearance in rat at 1 mg/kg, iv. It counts as ADME, organism-based. The following applies: in vivo.
The test system of data set [7] is Plasma. Description: Anticoagulant activity in human plasma assessed as concentration required to 1.5 times activation of partial thromboplastin time. Type of data set: functional.
The nature of data set [8]: in vivo. Particulars: rat, iv, 0.3 mg/kg.
Data set [9] in a line: in vivo. Particulars: rhesus monkey, iv, 3 mg/kg.
Data set [10] has as its system Plasma. Description: Anticoagulant activity in human plasma assessed as concentration required to double the activated partial thromboplastin time. It counts as functional.
Data set [11] in a line: Oral bioavailability in Sprague-Dawley rat incubated upto 24 hrs by LC-MS/MS analysis. It counts as ADME, organism-based. The following applies: in vivo.
Data set [12] can be described thus: Metabolic stability in mouse liver microsomes assessed as half life. It counts as ADME, Microsome. A general note: Microsomes from liver hold many membrane-bound enzymes, among them those of drug oxidation.
Data set [13] in a line: Metabolic stability in dog liver microsomes assessed as half life. It counts as ADME, Canis lupus familiaris, Microsome.
Data set [14] is described as follows: Half life in Sprague-Dawley rat at 1 mg/kg, iv. Particulars: in vivo. It counts as ADME, organism-based.
Data set [15] has as its system Plasma. Description: Anticoagulant activity in human plasma assessed as concentration required to double the prothrombin time. It counts as functional.
Data set [16] has as its target T1, Coagulation factor XI. Nature of the data set: Inhibition of human FXIa by absorbance based analysis.
Data set [17] can be described thus: Half life in IG dosed Beagle dog measured upto 24 hrs by LC/MS analysis. It counts as ADME, organism-based, Canis lupus familiaris. The following applies: in vivo, po.
The nature of data set [18]: Oral bioavailability in Beagle dog measured upto 24 hrs by LC/MS analysis. Particulars: in vivo. It counts as ADME, organism-based, Canis lupus familiaris.
Data set [19] can be described thus: Clearance in Sprague-Dawley rat at 1 mg/kg, iv. Particulars: in vivo. It counts as ADME, organism-based.
A short description of data set [20]: Plasma protein binding in human at 10 pM incubated for 4 hrs by HPLC-MS/MS analysis. It counts as ADME, cell-free. The following applies: read-out: PPB.
Data set [21] is described as follows: Oral bioavailability in dog. Type of data set: ADME, organism-based, Canis lupus familiaris. Particulars: in vivo.

Chain of Plasma kallikrein (P03952 20-390 limits assumed): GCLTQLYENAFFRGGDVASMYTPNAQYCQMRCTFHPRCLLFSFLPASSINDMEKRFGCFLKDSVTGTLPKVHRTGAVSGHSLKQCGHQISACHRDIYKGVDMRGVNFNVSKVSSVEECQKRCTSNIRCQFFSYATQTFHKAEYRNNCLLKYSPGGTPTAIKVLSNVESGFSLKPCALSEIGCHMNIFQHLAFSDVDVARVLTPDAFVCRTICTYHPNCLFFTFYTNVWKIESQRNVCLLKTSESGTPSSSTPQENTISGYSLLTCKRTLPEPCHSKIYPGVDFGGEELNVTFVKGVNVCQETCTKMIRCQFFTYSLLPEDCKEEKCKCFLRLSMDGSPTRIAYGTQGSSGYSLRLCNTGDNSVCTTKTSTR
Chain of Plasma kallikrein (P03952 391-638 limits assumed): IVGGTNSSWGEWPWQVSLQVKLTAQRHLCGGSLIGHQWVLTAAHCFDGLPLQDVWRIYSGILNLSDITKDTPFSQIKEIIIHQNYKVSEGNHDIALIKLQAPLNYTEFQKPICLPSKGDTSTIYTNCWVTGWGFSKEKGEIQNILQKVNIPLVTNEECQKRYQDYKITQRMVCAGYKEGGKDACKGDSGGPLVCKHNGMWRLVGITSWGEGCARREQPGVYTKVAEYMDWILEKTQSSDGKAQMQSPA

In the case of `Nc1ccc(-c2cnc([C@H](CC3CC3)c3ccc(-c4cc(Cl)ccc4-n4cnnn4)c[n+]3[O-])[nH]2)c(Cl)n1`, the IC50 at Coagulation factor XI [1] turned out to be 0.32 nM; at Plasma kallikrein, 80 nM.
The compound `O=C(O)c1cc2cc(NC(=O)[C@@H]3CCc4cc(-c5cc(Cl)ccc5-n5cnnn5)cc(=O)n43)ccc2[nH]1` yielded an IC50 against Coagulation factor XI [1] of 6.4 nM.
`O=c1cc(-c2c(-n3cnnn3)ccc(Cl)c2F)cc2n1[C@H](c1ccc(-c3ccnc(CO)c3F)[nH]1)CC2`: the IC50 is 1.8 nM at Coagulation factor XI [1] and 13 nM against Plasma kallikrein. Also, in data set [2], the half-life is 3.25 h. Also, in data set [3], the CL/F amounted to 19.6 mL/min/kg. This compound showed a bioavailability in data set [4] of 53.4%.
Turning to `O=C(O)c1ccc(NC(=O)[C@H](CC2CC2)c2ccc(-c3c(C(F)F)ccc(Cl)c3F)c[n+]2[O-])cc1` (mixture of isomers), in data set [5], the bioavailability was 89%. This compound gave a clearance in [6] of 1.9 mL/min/kg. Also, the EC in the data set with Plasma [7] turned out to be 0.61 µM.
As to `C[C@H]1COc2cn([C@@H](CC3CCCCO3)C(=O)Nc3ccc(C(N)=O)cc3)c(=O)cc2-c2c(ccc(Cl)c2F)C1` (stereo not given in full), the IC50 came to 1.7 nM against Coagulation factor XI [1] and 60 nM on Plasma kallikrein.
As for `CC[C@@H](C(=O)Nc1ccc(C(N)=O)c(F)c1)n1cc(OC)c(-c2cc(Cl)ccc2-n2cc(C(F)(F)F)nn2)cc1=O`, the figures for the clearance in the data set “in vivo [8]” and in “in vivo [9]” were 13.8 mL/min/kg and 2 mL/min/kg, respectively.
On Coagulation factor XI [1], `COc1cn(C(Cc2ccccc2)c2nc3cc(C(=O)O)ccc3[nH]2)c(=O)cc1-c1cc(Cl)ccc1-n1cnnn1` (stereo not given) showed an IC50 of 3 nM.
Regarding `COCC[C@@H](C(=O)Nc1ccc2nn(C)cc2c1)N1CC(=O)N(c2cc(Cl)ccc2-n2cc(Cl)nn2)CC1=O`, the EC in the data set on Plasma [10] came out at 5.3 µM. For the same compound, the bioavailability in data set [11] is 72.5%. Moreover, the half-life in data set [12] was > 5 h; in [13] it was > 15 h; in data set [14] it was 1.5 h.
In the case of `CC(C)c1cc(COc2ccccc2CC(=O)O)cc(-c2ccc3c(c2)[C@H](N)CO3)c1`, the EC with Plasma [10] was 2.2 µM; with Plasma [15] it was 9.9 µM.
On to `COc1nn([C@@H](Cc2ccccc2)C(=O)Nc2ccc(C(=O)O)cc2)c(=O)cc1-c1cc(Cl)ccc1C(C)=O`, for which the Ki at Coagulation factor XI [16] is 1.6 nM; on Plasma kallikrein it was 103 nM. The compound also gave a half-life in data set [17] of 4.5 h. Also, in data set [18], the bioavailability was 49.6%.
As for `O=C(O)c1cc2cc(NC(=O)[C@H](Cc3ccc(N4CCN(C5CCC(O)CC5)CC4=O)cc3)N3CCN(c4cc(Cl)ccc4-n4cnnn4)C(=O)C3=O)ccc2[nH]1` (stereo not given in full), the IC50 against Coagulation factor XI [16] was found to be 1.75 nM. Further, the EC with Plasma [10] stood at 1.1 µM. The clearance in data set [19] was 33.3 mL/min/kg. In [14], this compound gave a half-life of 0.46 h.
As for `C[C@@H]1CCC[C@H](n2cnc(-c3cc(Cl)ccc3-n3cnnn3)cc2=O)c2cc(c3c(n2)OCCO3)-c2c(cnn2C)NC1=O`, half-maximal inhibition on Coagulation factor XI [1] (IC50) required 10.4 nM.
On Coagulation factor XI [1], `Nc1ccc(-c2[nH]c(Cn3c4c(c(-c5cc(Cl)ccc5-n5cnnn5)cc3=O)C(=O)CC4)nc2F)c(F)n1` showed an IC50 of 0.32 nM.
For the compound `CC[C@@H](NC(=O)N1C(=O)[C@H](Cc2ccnc(N)c2)[C@H]1C(=O)O)c1ccccc1`, the IC50 against Coagulation factor XI [1] was < 10 nM.
On to `O=C(OC[C@H]1O[C@@H](OC(=O)c2cc(OS(=O)(=O)O)cc(OS(=O)(=O)O)c2)[C@H](OC(=O)c2cc(OS(=O)(=O)O)cc(OS(=O)(=O)O)c2)[C@@H](OC(=O)c2cc(OS(=O)(=O)O)cc(OS(=O)(=O)O)c2)[C@@H]1OC(=O)c1cc(OS(=O)(=O)O)cc(OS(=O)(=O)O)c1)c1cc(OS(=O)(=O)O)cc(OS(=O)(=O)O)c1`, for which the 50% inhibitory concentration (IC50) on Coagulation factor XI [1] is 1400 nM.
Regarding `CC[C@@H](NC(=O)N1C(=O)[C@H](Cc2ccnc(N)c2)[C@H]1C(=O)N(C)c1nccn1C)c1ccccc1`, at Coagulation factor XI [1], the 50% inhibitory concentration (IC50) was < 10 nM. For the same compound, the fraction unbound at 4 h, 1e-05 µM in data set [20] amounted to 0.5. The bioavailability in data set [21] is > 33%. In addition, in data set [13], the half-life was 2.02 h.
Compound `Nc1ccc(-c2nc([C@H]3CCc4cc(-c5cc(Cl)ccc5-n5cnnn5)cc(=O)n43)c(F)[nH]2)c(F)n1` [ONO-7684] showed a Ki at Coagulation factor XI [1] of 2 nM.

Source of the values: ChEMBL document CHEMBL5338745, “Factor XIa Inhibitors in Anticoagulation Therapy: Recent Advances and Perspectives” (J Med Chem, 2023).
